This is an account of results in US20090176811A1, “Substituted 5,6,7,8-Tetrahydro-pyrido[4,3-d]pyrimidine-2-yl Compounds and 5,6,7,8-Tetrahydro-quinazoline-2-yl Compounds” (GRUENENTHAL GmbH, priority 2004, published 2009).

In the assay the test system is batrachotoxin (BTX) binding site of the sodium channel. In words: Affinity for the batrachotoxin (BTX) binding site of the sodium channel ([3H]-Batrachotoxinin A20 benzoate, rat cerebrocortex synaptosomes). To be noted: [3H]-Batrachotoxinin A20 benzoate 10 nM, test concentration not given.

`O=C(Nc1ncc2c(n1)CCN(C(=O)c1ccc(OC(F)(F)F)cc1)C2)c1cc(Cl)cc(Cl)c1` [Example 192, 3,5-dichloro-N-[6-(4-trifluoromethoxy-benzoyl)-5,6,7,8-tetrahydro-pyrido[4,3-d]pyrimidin-2-yl]-benzamide] gave a BTX inhibition of 87.

Regarding `CCCCC(C)CCC(=O)N1CCc2nc(NC(=O)c3cccc4ccccc34)ncc2C1` (stereo not shown) [Example 193, naphthalene-1-carboxylic acid [6-(4-methyl-octanoyl)-5,6,7,8-tetrahydro-pyrido[4,3-d]pyrimidin-2-yl]-amide], the BTX inhibition came out at 84.

Regarding `COc1ccccc1C(=O)Nc1ncc2c(n1)CCN(C(=O)COCc1ccccc1)C2` [Example 195, N-[6-(2-benzyloxy-acetyl)-5,6,7,8-tetrahydro-pyrido[4,3-d]pyrimidin-2-yl]-2-methoxy-benzamide], the BTX inhibition turned out to be 35.

As for `COc1cccc(C(=O)Nc2ncc3c(n2)CCN(C(=O)c2cccc(OC(F)(F)F)c2)C3)c1` [Example 199, 3-methoxy-N-[6-(3-trifluoromethoxy-benzoyl)-5,6,7,8-tetrahydro-pyrido[4,3-d]pyrimidin-2-yl]-benzamide], the BTX inhibition is 48.
